System: CT-26-mNTSR1 tumor
Test: Combination of [^225Ac]-Compound A and Olaparib in CT-26-mNTSR1 tumor bearing mice, tumor growth
Type: in vivo, mouse
Conditions: olaparib monotherapy at 50 mg/kg
Method: An in vivo study was conducted to test the effect of [^225Ac]-Compound A (as described in Example 3) in combination with Olaparib in CT-26-mNTSR1 tumor bearing mice.

Compound: O=C(c1cc(Cc2n[nH]c(=O)c3ccccc23)ccc1F)N1CCN(C(=O)C2CC2)CC1 [olaparib]
- reduction in tumor growth compared to control mice: slight or neglible reduction in tumor growth
